IC50 data for 14 compounds are collected here from patent US20240409585A1, “MACROCYCLIC IMMUNOMODULATORS” (priority 2021, published 2024).

Numbered stars: 1 amine (or outer) side, 2 acyl side, 3 side chain; on linkers, the order of the positions; unused ones are H or OH. Bridge positions count the residues as written; N and C are the ends. Square brackets hold non-standard residues; d marks the D form. Peptide text beside a SMILES is read from it. * marks the point of attachment. ξ: configuration not given here. Gly(1-amidinopiperidin-4-yl) = N=C(N)N1CCC([C@H](N)C(=O)O)CC1; Phe(4-COOH) = N[C@@H](Cc1ccc(C(=O)O)cc1)C(=O)O; dPhe(4-CN) = N#Cc1ccc(C[C@@H](N)C(=O)O)cc1; Bip = N[C@@H](Cc1ccc(-c2ccccc2)cc1)C(=O)O; Phe(3-OMe) = COc1cccc(C[C@H](N)C(=O)O)c1; Phe(3-Me) = Cc1cccc(C[C@H](N)C(=O)O)c1; Phe(4-F) = N[C@@H](Cc1ccc(F)cc1)C(=O)O; Val(3-OH) = CC(C)(O)[C@H](N)C(=O)O; X49 = O=C(C(N[*:1])C1CCOCC1)[*:2]; aIle = CC[C@@H](C)[C@H](N)C(=O)O; 3Pal = N[C@@H](Cc1cccnc1)C(=O)O; 4Pal = N[C@@H](Cc1ccncc1)C(=O)O; Cha = N[C@@H](CC1CCCCC1)C(=O)O; Cit = NC(=O)NCCC[C@H](N)C(=O)O; Ile(3ξ) = CCC(C)[C@H](N)C(=O)O; Thr(3ξ) = CC(O)[C@H](N)C(=O)O; ξTle = CC(C)(C)C(N)C(=O)O; Carboxymethyl = O=C(O)C*; NMeA = CN[C@@H](C)C(=O)O; Orn = NCCC[C@H](N)C(=O)O; Dab = NCC[C@H](N)C(=O)O; ξV = CC(C)C(N)C(=O)O; ξC = NC(CS)C(=O)O

T1 sequence (Q15116 25-288): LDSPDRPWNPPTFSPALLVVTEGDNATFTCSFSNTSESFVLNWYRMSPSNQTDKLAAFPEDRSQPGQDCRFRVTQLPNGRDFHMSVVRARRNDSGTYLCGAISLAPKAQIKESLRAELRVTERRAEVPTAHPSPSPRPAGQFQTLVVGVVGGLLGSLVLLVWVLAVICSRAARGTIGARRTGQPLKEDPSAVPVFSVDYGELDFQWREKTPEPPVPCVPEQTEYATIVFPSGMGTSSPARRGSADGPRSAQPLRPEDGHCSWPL

The assay concerns the target T1, PE-labeled human PD-L1-Ig binding to Jurkat cell line over-expressing human PD-1 (Jurkat-PD-1) (Homo sapiens, UniProt Q15116).
T1 construct: expressed in transfected cells; host or cells: Jurkat
Nature of the assay: Jurkat-PD-1 Cell Binding High-Content Screening Assay (CBA): Method 1. The conditions noted are these: Jurkat-hPD-1 cells, PE-labeled PD-L1-Ig 20 nM final; read-out: Jurkat HPDL1 PD1 IC50 (uM) (Method 1).
Take `CC(C)C[C@@H]1NC(=O)[C@H](Cc2c[nH]c3ccccc23)NC(=O)[C@H](CC(=O)O)NC(=O)[C@H](Cc2ccc(O)cc2)NC(=O)[C@H](Cc2ccccc2)NC(=O)CSC[C@@H](C(=O)N[C@@H](C)C(N)=O)NC(=O)[C@H](CO)NC(=O)[C@H](C(C)C)NC(=O)[C@H](CC(C)C)NC(=O)[C@H](CC(=O)O)NC(=O)C(C(C)(C)C)NC(=O)[C@H](C)N(C)C(=O)[C@H](C(C)C)NC(=O)[C@H](Cc2ccc(-c3ccccc3)cc2)NC1=O` (some centres unmarked) [Compound 1827] ({CH2CO}-FYDWL[Bip]V[NMeA][ξTle]DLVSCA-NH2; thioether N-14): the IC50 was 0.79 µM.

Regarding `CC[C@@H](C)[C@@H]1NC(=O)[C@H](Cc2ccc(-c3ccccc3)cc2)NC(=O)[C@H](CC(C)C)NC(=O)[C@H](Cc2c[nH]c3ccccc23)NC(=O)[C@H](CC(=O)O)NC(=O)[C@H](Cc2ccc(C(=O)O)cc2)NC(=O)[C@H](Cc2ccc(OCC(=O)O)cc2)NC(=O)CSC[C@@H](C(=O)N[C@@H](CCCCN)C(N)=O)NC(=O)[C@H](CO)NC(=O)C(C(C)C)NC(=O)[C@H](CC(C)C)NC(=O)[C@H](CC(N)=O)NC(=O)[C@@H](CC(C)C)NC(=O)[C@H](C)N(C)C1=O` (stereo partly drawn) [Compound 2100] ({CH2CO}-Y(Carboxymethyl)[Phe(4-COOH)]DWL[Bip][aIle][NMeA][dL]NL[ξV]SCK-NH2; thioether N-14), the IC50 is 0.03 µM.

On to `COc1cccc(C[C@@H]2NC(=O)[C@H](Cc3ccccc3)NC(=O)CSC[C@@H](C(=O)NCC(N)=O)NC(=O)[C@H](CO)NC(=O)[C@H](C(C)C)NC(=O)[C@H](CC(C)C)NC(=O)[C@H](CC(N)=O)NC(=O)[C@@H](CC(C)C)NC(=O)[C@H](C)N(C)C(=O)[C@H](C(C)C)NC(=O)[C@H](Cc3ccc(-c4ccccc4)cc3)NC(=O)[C@H](CC(C)C)NC(=O)[C@H](Cc3c[nH]c4ccccc34)NC(=O)[C@H](CC(=O)O)NC2=O)c1` [Compound 1521] ({CH2CO}-F[Phe(3-OMe)]DWL[Bip]V[NMeA][dL]NLVSCG-NH2; thioether N-14), for which the IC50 stood at 0.07 µM.

In the case of `CC(C)C[C@@H]1NC(=O)[C@H](CCN)NC(=O)[C@@H](CC(C)C)NC(=O)[C@H](C)N(C)C(=O)[C@H](CCCNC(N)=O)NC(=O)[C@H](Cc2ccc(-c3ccccc3)cc2)NC(=O)[C@H](C(C)C)NC(=O)[C@H](Cc2c[nH]c3ccccc23)NC(=O)[C@H](CC(=O)O)NC(=O)[C@H](Cc2ccc(C(=O)O)cc2)NC(=O)[C@H](Cc2cccnc2)NC(=O)CSC[C@@H](C(=O)N[C@@H](C)C(N)=O)NC(=O)[C@H]([C@@H](C)O)NC(=O)[C@H](C(C)C)NC1=O` [Compound 1332] ({CH2CO}-[3Pal][Phe(4-COOH)]DWV[Bip][Cit][NMeA][dL][Dab]LVTCA-NH2; thioether N-14), the IC50 was 0.03 µM.

On to `COc1cccc(C[C@@H]2NC(=O)[C@H](Cc3cccnc3)NC(=O)CSC[C@@H](C(=O)NCC(N)=O)NC(=O)[C@H](CO)NC(=O)[C@H](C(C)C)NC(=O)[C@H](CC(C)C)NC(=O)[C@H](CC(N)=O)NC(=O)[C@@H](CC(C)C)NC(=O)[C@H](C)N(C)C(=O)[C@H](C(C)C)NC(=O)[C@H](Cc3ccc(-c4ccccc4)cc3)NC(=O)[C@H](CC(C)C)NC(=O)[C@H](Cc3c[nH]c4ccccc34)NC(=O)[C@H](CC(=O)O)NC2=O)c1` [Compound 1524] ({CH2CO}-[3Pal][Phe(3-OMe)]DWL[Bip]V[NMeA][dL]NLVSCG-NH2; thioether N-14), for which the IC50 came to 0.01 µM.

As for `Cc1cccc(C[C@@H]2NC(=O)[C@H](CC(=O)O)NC(=O)[C@H](Cc3ccc(C(=O)O)cc3)NC(=O)[C@H](Cc3ccc(OCC(=O)O)cc3)NC(=O)CSC[C@@H](C(=O)N[C@@H](CO)C(N)=O)NC(=O)[C@H](CO)NC(=O)[C@H](C(C)C)NC(=O)[C@H](CC(C)C)NC(=O)[C@H](CCN)NC(=O)[C@@H](CC(C)C)NC(=O)[C@H](C)N(C)C(=O)[C@H](C(C)C)NC(=O)[C@H](Cc3ccc(-c4ccccc4)cc3)NC(=O)[C@H](CC(C)C)NC2=O)c1` [Compound 2111] ({CH2CO}-Y(Carboxymethyl)[Phe(4-COOH)]D[Phe(3-Me)]L[Bip]V[NMeA][dL][Dab]LVSCS-NH2; thioether N-14), the IC50 amounted to 0.01 µM.

For the compound `CC[C@H](C)[C@@H]1NC(=O)[C@H](Cc2ccc(-c3ccccc3)cc2)NC(=O)[C@H](C(C)(C)O)NC(=O)[C@H](Cc2cccc(C)c2)NC(=O)[C@H](CC(=O)O)NC(=O)[C@H](Cc2ccc(O)cc2)NC(=O)[C@H](CC(N)=O)NC(=O)CSC[C@@H](C(=O)N[C@H](C)C(N)=O)NC(=O)[C@H]([C@@H](C)O)NC(=O)[C@H](C(C)C)NC(=O)[C@H](CC2CCCCC2)NC(=O)[C@H](CCN)NC(=O)[C@@H](CC(C)C)NC(=O)[C@H](C)N(C)C1=O` [Compound 1692] ({CH2CO}-NYD[Phe(3-Me)][Val(3-OH)][Bip]I[NMeA][dL][Dab][Cha]VTC[dA]-NH2; thioether N-14), the IC50 is 0.08 µM.

In the case of `CC(C)C[C@@H]1NC(=O)[C@H](CCCN)NC(=O)[C@@H](CC(C)C)NC(=O)[C@H](C)N(C)C(=O)[C@H](CCCNC(=N)N)NC(=O)[C@H](Cc2ccc(-c3ccccc3)cc2)NC(=O)[C@H](C(C)C)NC(=O)[C@H](Cc2c[nH]c3ccccc23)NC(=O)[C@H](CC(=O)O)NC(=O)[C@H](Cc2ccc(OCC(=O)O)cc2)NC(=O)[C@H](CC(N)=O)NC(=O)CSC[C@@H](C(=O)N[C@@H](C)C(N)=O)NC(=O)[C@H]([C@@H](C)O)NC(=O)[C@H](C(C)C)NC1=O` [Compound 1152] ({CH2CO}-NY(Carboxymethyl)DWV[Bip]R[NMeA][dL][Orn]LVTCA-NH2; thioether N-14), the half-inhibitory concentration (IC50) was 0.08 µM.

Take `CCC(C)[C@@H]1NC(=O)[C@H](Cc2ccc(-c3ccccc3)cc2)NC(=O)[C@H](C(C)C)NC(=O)[C@H](Cc2c[nH]c3ccccc23)NC(=O)[C@H](CC(=O)O)NC(=O)[C@H](Cc2ccc(O)cc2)NC(=O)[C@H](Cc2ccncc2)NC(=O)CSCC(C(=O)N[C@@H](CCCN)C(=O)O)NC(=O)[C@H](C(C)O)NC(=O)[C@H](C(C)C)NC(=O)[C@H](CC2CCCCC2)NC(=O)[C@H](CC(N)=O)NC(=O)[C@@H](CC(C)C)NC(=O)[C@H](C)N(C)C1=O` (stereo partly drawn) [Compound 2214] ({CH2CO}-[4Pal]YDWV[Bip][Ile(3ξ)][NMeA][dL]N[Cha]V[Thr(3ξ)][ξC][Orn]-OH; thioether N-14): the IC50 was 0.02 µM.

For the compound `CC(C)C[C@@H]1NC(=O)[C@H](CCCNC(=N)N)NC(=O)[C@@H](Cc2ccccc2)NC(=O)[C@H](C)N(C)C(=O)[C@H](CCCNC(=N)N)NC(=O)[C@H](Cc2ccc(-c3ccccc3)cc2)NC(=O)[C@H](C(C)C)NC(=O)[C@H](Cc2c[nH]c3ccccc23)NC(=O)[C@H](CC(=O)O)NC(=O)[C@H](Cc2ccc(O)cc2)NC(=O)[C@H](CCC(N)=O)NC(=O)CSC[C@@H](C(=O)N[C@@H](C)C(N)=O)NC(=O)[C@H](CO)NC(=O)[C@H](C(C)C)NC1=O` [Compound 1043] ({CH2CO}-QYDWV[Bip]R[NMeA][dF]RLVSCA-NH2; thioether N-14), the IC50 turned out to be 0.17 µM.

As to `Cc1cccc(C[C@@H]2NC(=O)[C@H](CC(=O)O)NC(=O)[C@H](Cc3ccc(C(=O)O)cc3)NC(=O)[C@H](Cc3ccc(F)cc3)NC(=O)CSC[C@@H](C(=O)N[C@@H](CCN)C(N)=O)NC(=O)[C@H](CCC(=O)O)NC(=O)[C@H](C(C)O)NC(=O)[C@H](CC3CCCCC3)NC(=O)[C@H](CCN)NC(=O)[C@@H](CC(C)C)NC(=O)[C@H](C)N(C)C(=O)[C@H](Cc3ccc(C(=O)O)cc3)NC(=O)[C@H](Cc3ccc(-c4ccccc4)cc3)NC(=O)[C@H](Cc3ccc(C(=O)O)cc3)NC2=O)c1` (stereo partly drawn) [Compound 2209] ({CH2CO}-[Phe(4-F)][Phe(4-COOH)]D[Phe(3-Me)][Phe(4-COOH)][Bip][Phe(4-COOH)][NMeA][dL][Dab][Cha][Thr(3ξ)]EC[Dab]-NH2; thioether N-14), the IC50 worked out at 0.01 µM.

As to `CC(C)C[C@@H]1NC(=O)[C@H](CCCNC(=N)N)NC(=O)[C@@H](Cc2ccc(C#N)cc2)NC(=O)[C@H](C)N(C)C(=O)[C@H](CCCNC(=N)N)NC(=O)[C@H](Cc2ccc(-c3ccccc3)cc2)NC(=O)[C@H](C(C)C)NC(=O)[C@H](Cc2c[nH]c3ccccc23)NC(=O)[C@H](CC(=O)O)NC(=O)[C@H](Cc2ccc(O)cc2)NC(=O)[C@H](Cc2ccccc2)NC(=O)CSC[C@@H](C(=O)N[C@@H](C)C(N)=O)NC(=O)[C@H]([C@@H](C)O)NC(=O)[C@H](C(C)C)NC1=O` [Compound 1107] ({CH2CO}-FYDWV[Bip]R[NMeA][dPhe(4-CN)]RLVTCA-NH2; thioether N-14), the IC50 turned out to be 0.07 µM.

For the compound `CC(C)C[C@@H]1NC(=O)[C@H](CCN)NC(=O)[C@@H](CC(C)C)NC(=O)[C@H](C)N(C)C(=O)[C@H](CCCNC(N)=O)NC(=O)[C@H](Cc2ccc(-c3ccccc3)cc2)NC(=O)[C@H](C(C)C)NC(=O)[C@H](Cc2c[nH]c3ccccc23)NC(=O)[C@H](CC(=O)O)NC(=O)[C@H](Cc2ccc(O)cc2)NC(=O)[C@H](C2CCN(C(=N)N)CC2)NC(=O)CSC[C@@H](C(=O)N[C@@H](C)C(N)=O)NC(=O)[C@H](C(C)O)NC(=O)[C@H](C(C)C)NC1=O` (stereo partly drawn) [Compound 2038] ({CH2CO}-[Gly(1-amidinopiperidin-4-yl)]YDWV[Bip][Cit][NMeA][dL][Dab]LV[Thr(3ξ)]CA-NH2; thioether N-14), the IC50 is 0.07 µM.

Take `CCC(C)[C@@H]1NC(=O)[C@H](Cc2ccc(-c3ccccc3)cc2)NC(=O)[C@H](C(C)C)NC(=O)[C@H](Cc2c[nH]c3ccccc23)NC(=O)[C@H](CC(=O)O)NC(=O)[C@H](Cc2ccc(O)cc2)NC(=O)[C@H](CCN)NC(=O)CSC[C@@H](C(=O)NC(C(N)=O)C2CCOCC2)NC(=O)[C@H](C(C)O)NC(=O)[C@H](C(C)(C)O)NC(=O)[C@H](CC2CCCCC2)NC(=O)[C@H](CC(N)=O)NC(=O)[C@@H](CC(C)C)NC(=O)[C@H](C)N(C)C1=O` (stereo partly drawn) [Compound 2175] ({CH2CO}-[Dab]YDWV[Bip][Ile(3ξ)][NMeA][dL]N[Cha][Val(3-OH)][Thr(3ξ)]C[X49]-NH2; thioether N-14): the IC50 amounted to 0.23 µM.
